Values of other authors as cited in patent publication US20030036641A1, “Methods for homology-driven reassembly of nucleic acid sequences” (priority 2001, published 2003).

Tested on: E. coli TG1
Settings: E. coli TG1 containing pGJ103 (pI258 ars operon in pUC19), LB ampicillin agar plates

sodium arsenate
MIC (minimum inhibitory concentration): 4 µg/mL
